Assay results taken from ChEMBL document CHEMBL4390689 (Bioorg Med Chem Lett, 2019).
Calls of active or inactive are those of the source. The rule behind the calls is not given here.

Legend:
[1] = target: T1, Tubulin (Homo sapiens) (UniProt P68371+Q9H4B7+P0DPH7+P68366+Q13509+Q71U36+P04350+Q3ZCM7+P07437+P68363+Q9BQE3+Q6PEY2+Q13885+Q9BVA1+Q9BUF5); assay: Induction of microtubule disposition in human HeLa cells assessed as appearance of multiple clumps of tubulin at 500 pM for 20 hrs measured by immunofluorescence method; assay type: cell-based
[2] = test system: L1210; assay: Growth inhibition of mouse L1210 cells measured after 72 hrs by phosphatase assay; assay type: functional, cell-based; settings: L1210, 72 h
[3] = test system: HCT-116; assay: Growth inhibition of human HCT116 cells measured after 72 hrs by phosphatase assay; assay type: functional, cell-based; settings: HCT-116, 72 h
[4] = test system: HCT-116/VM46; assay: Growth inhibition of human HCT116/VM46 cells measured after 72 hrs by phosphatase assay; assay type: functional, cell-based; settings: HCT-116/VM46, 72 h
[5] = target: Tubulin (Sus scrofa) (UniProt P02554+P02550); assay: Competitive displacement of BODIPY-VBL from porcine brain tubulin at 1.8 uM in presence of GTP by fluorescence method relative to control
[6] = species on record: Sus scrofa; assay: Inhibition of GMPCPP-induced porcine brain microtubule polymerization at 2 uM measured upto 30 mins by UV spectrophotometric method
[7] = species on record: Sus scrofa; assay: Effect on GMPCPP-induced porcine brain microtubule polymerization assessed as catalytic depolymerisation of microtubulin at 2 uM measured upto 30 mins by UV spectrophotometric method
[8] = species on record: Sus scrofa; assay: Inhibition of GMPCPP-induced porcine brain microtubule polymerization at 2 uM under 4 degreeC measured upto 30 mins by UV spectrophotometric method
[9] = species on record: Bos taurus; assay: Inhibition of bovine microtubule polymerization at 143 pM and measured upto 5000 sec by tubulin polymerisation assay
[10] = species on record: Bos taurus; assay: Inhibition of bovine microtubule polymerization at 143 nM and measured upto 5000 sec by tubulin polymerisation assay
[11] = species on record: Sus scrofa; assay: Inhibition of paclitaxel-induced porcine brain microtubule polymerization at 2 uM measured upto 30 mins by UV spectrophotometric method
[12] = species on record: Sus scrofa; assay: Inhibition of paclitaxel-induced porcine brain microtubule polymerization at 2 uM under 4 degreeC measured upto 30 mins by UV spectrophotometric method
[13] = species on record: Bos taurus; assay: Inhibition of bovine microtubule polymerization at 143 uM and measured upto 5000 sec by tubulin polymerisation assay
[14] = target: T1, Tubulin (Homo sapiens); assay: Inhibition of global microtubule skeleton in human HeLa cells assessed as catastrophic effect on global microtubule skeleton at 75 pM incubated for 20 hrs by Hoechst/[…] staining based confocal microscopy; assay type: cell-based
[15] = test system: HeLa; assay: Induction of mitotic arrest in human HeLa cells after 24 hrs by immunofluorescence based confocal microscopy relative to control; assay type: functional, cell-based
[16] = test system: HeLa; assay: Potency index, ratio of vinblastine effect to compound effect for Induction of mitotic arrest in human HeLa cells after 24 hrs by immunofluorescence based confocal microscopy relative to control; assay type: functional
[17] = target: T2, Tubulin alpha (Homo sapiens) (UniProt P0DPH7+P68366+Q71U36+P68363+Q9BQE3+Q6PEY2+A6NHL2+Q9NY65); assay: Induction of microtubule disposition in human HeLa cells assessed as detection of alpha tubulin isoform at 500 nM for 20 hrs measured by immunofluorescence method; assay type: cell-based
[18] = target: Tubulin beta (Homo sapiens) (UniProt P68371+Q9H4B7+Q13509+P04350+Q3ZCM7+P07437+Q13885+Q9BVA1+Q9BUF5+A6NNZ2); assay: Induction of microtubule disposition in human HeLa cells assessed as detection of beta tubulin isoform at 500 nM for 20 hrs measured by immunofluorescence method; assay type: cell-based
[19] = test system: HeLa; assay: Induction of microtubule disposition in human HeLa cells assessed as detection of gamma tubulin isoform at 500 nM for 20 hrs measured by immunofluorescence method; assay type: cell-based
[20] = target: T1, Tubulin (Homo sapiens); assay: Induction of microtubule disposition in human HeLa cells assessed as appearance of clumps of tubulin without […] at 500 pM incubated for 20 hrs measured by immunofluorescence method; assay type: cell-based
[21] = target: T1, Tubulin (Homo sapiens); assay: Inhibition of human GFP tagged tubulin expressed in human HeLa cells assessed as suppression of microtubule dynamics at 500 nM after 5 hrs by TIRF super resolution microscopy; assay type: cell-based
[22] = target: T1, Tubulin (Homo sapiens); assay: Inhibition of GFP tagged human tubulin expressed in human HeLa cells assessed as increase in the ratio of short versus medium and long microtubules after 5 hrs by TIRF super resolution microscopy; assay type: cell-based
[23] = test system: HeLa; assay: Induction of mitotic arrest in human HeLa cells after 24 hrs by immunofluorescence based confocal microscopy relative to vinblastine; assay type: functional
[24] = test system: HeLa; assay: Growth inhibition of human HeLa cells measured after 72 hrs by phosphatase assay; assay type: functional, cell-based
[25] = target: T2, Tubulin alpha (Homo sapiens); assay: Induction of microtubule disposition in human HeLa cells assessed as detection of alpha tubulin isoform at 10 nM for 20 hrs measured by immunofluorescence method; assay type: cell-based
[26] = test system: HeLa; assay: Induction of microtubule disposition in human HeLa cells assessed as detection of gamma tubulin isoform at 10 nM for 20 hrs measured by immunofluorescence method; assay type: cell-based

With `CC[C@]1(NC(=O)N2Cc3ccc(NC(=O)c4cnccn4)cc3C2)C[C@H]2CN(CCc3c([nH]c4ccccc34)[C@@](C(=O)OC)(c3cc4c(cc3OC)N(C)[C@H]3[C@@](O)(C(=O)OC)[C@H](OC(C)=O)[C@]5(CC)C=CCN6CC[C@]43[C@@H]65)C2)C1` the Activity [1] was “Active”, the IC50 [2] was 0.059 nM and the IC50 [3] was 0.075 nM. For the same compound, the IC50 [4] was 0.83 nM, the Activity [5] was 105% and the inhibition [6] was “inactive”. For the same compound, the Activity [7] was “inactive”, the inhibition [8] was “Active” and the inhibition [9] was “inactive”. For the same compound, the inhibition [10] was “inactive”, the inhibition [11] was “inactive” and the inhibition [12] was “Active”. The inhibition [13] was “Active”, the inhibition [14] was “inactive” and the Activity [15] was “Dose-dependent effect”. For the same compound, the Ratio [16] was 100, the Activity [17] was “Active” and the Activity [18] was “Active”. For the same compound, the Activity [19] was “inactive”, the Activity [20] was “Active” and the inhibition [21] was “Active”. The inhibition [22] was “Active”, the “fold change (FC)” value [23] was 100 and the IC50 [24] was 0.083 nM.

In the case of `CC[C@]1(O)C[C@@H]2CN(CCc3c([nH]c4ccccc34)[C@@](C(=O)OC)(c3cc4c(cc3OC)N(C)[C@H]3[C@@](O)(C(=O)OC)[C@H](OC(C)=O)[C@]5(CC)C=CCN6CC[C@]43[C@@H]65)C2)C1` [VINBLASTINE], the Activity [5] is reported as 31%, the inhibition [13] is reported as “Active” and the Activity [15] is reported as “Dose-dependent effect”. The Activity [25] was “Active”, the Activity [26] was “inactive” and the IC50 [24] was 7.8 nM.

`CC[C@]1(NC(=O)N2Cc3ccc(NC(=O)c4cccnn4)cc3C2)C[C@H]2CN(CCc3c([nH]c4ccccc34)[C@@](C(=O)OC)(c3cc4c(cc3OC)N(C)[C@H]3[C@@](O)(C(=O)OC)[C@H](OC(C)=O)[C@]5(CC)C=CCN6CC[C@]43[C@@H]65)C2)C1` was tested, and the IC50 [2] was 0.059 nM, the IC50 [3] was 0.067 nM and the IC50 [4] was 0.87 nM. For the same compound, the Activity [5] was 101%, the inhibition [9] was “inactive” and the inhibition [10] was “inactive”.

`CC[C@]1(NC(=O)N2Cc3ccccc3C2)C[C@H]2CN(CCc3c([nH]c4ccccc34)[C@@](C(=O)OC)(c3cc4c(cc3OC)N(C)[C@H]3[C@@](O)(C(=O)OC)[C@H](OC(C)=O)[C@]5(CC)C=CCN6CC[C@]43[C@@H]65)C2)C1` showed an Activity [5] of 49%.

In the case of `CC[C@]1(NC(=O)N2Cc3ccc(NC(=O)c4ccncn4)cc3C2)C[C@H]2CN(CCc3c([nH]c4ccccc34)[C@@](C(=O)OC)(c3cc4c(cc3OC)N(C)[C@H]3[C@@](O)(C(=O)OC)[C@H](OC(C)=O)[C@]5(CC)C=CCN6CC[C@]43[C@@H]65)C2)C1`, the IC50 [2] is reported as 0.062 nM, the IC50 [3] is reported as 0.074 nM and the IC50 [4] is reported as 0.88 nM. The Activity [5] was 104%, the inhibition [6] was “inactive” and the Activity [7] was “inactive”. For the same compound, the inhibition [8] was “Active”, the inhibition [9] was “inactive” and the inhibition [10] was “inactive”. The inhibition [11] was “inactive” and the inhibition [12] was “Active”.
